Test results: patent US10676443B2, “Method for producing (4S)-4-[4-cyano-2-(methylsulfonyl)phenyl]-3,6-dimethyl-2-oxo-1-[3-(trifluoromethyl)phenyl]-1,2,3,4-tetrahydro pyrimidine-5-carbonitrile” (pH Pharma Co., Ltd., priority 2015, dated 2020)

Assay: stability of crystal form (A) on storage, even at high humidity
Assay type: physicochemical
Settings: solid crystal form (A)

## CC1=C(C#N)[C@@H](c2ccc(C#N)cc2S(C)(=O)=O)N(C)C(=O)N1c1cccc(C(F)(F)F)c1 [crystal form (A), (S)-4-[4-cyano-2-(methylsulfonyl)phenyl]-3,6-dimethyl-2-oxo-1-[3-(trifluoromethyl)phenyl]-1,2,3,4-tetrahydropyrimidine-5-carbonitrile]
Even at high humidity
  stability properties: very good
storage
  storage time with no loss of stability: more than 3 years
